Test results as given in ChEMBL document CHEMBL5233239, “Matrix metalloproteinase-9 (MMP-9) and its inhibitors in cancer: A minireview” (Eur J Med Chem, 2020).

What was measured:
[1] = target: T1, Matrix metalloproteinase-9 (Homo sapiens, UniProt P14780); assay: Inhibition of MMP-9 (unknown origin) by fluorimetric assay
[2] = target: T2, 72 kDa type IV collagenase (Homo sapiens, UniProt P08253); assay: Inhibition of MMP-2 (unknown origin) by fluorimetric assay
Target sequence in this assay (P08253 whole entry): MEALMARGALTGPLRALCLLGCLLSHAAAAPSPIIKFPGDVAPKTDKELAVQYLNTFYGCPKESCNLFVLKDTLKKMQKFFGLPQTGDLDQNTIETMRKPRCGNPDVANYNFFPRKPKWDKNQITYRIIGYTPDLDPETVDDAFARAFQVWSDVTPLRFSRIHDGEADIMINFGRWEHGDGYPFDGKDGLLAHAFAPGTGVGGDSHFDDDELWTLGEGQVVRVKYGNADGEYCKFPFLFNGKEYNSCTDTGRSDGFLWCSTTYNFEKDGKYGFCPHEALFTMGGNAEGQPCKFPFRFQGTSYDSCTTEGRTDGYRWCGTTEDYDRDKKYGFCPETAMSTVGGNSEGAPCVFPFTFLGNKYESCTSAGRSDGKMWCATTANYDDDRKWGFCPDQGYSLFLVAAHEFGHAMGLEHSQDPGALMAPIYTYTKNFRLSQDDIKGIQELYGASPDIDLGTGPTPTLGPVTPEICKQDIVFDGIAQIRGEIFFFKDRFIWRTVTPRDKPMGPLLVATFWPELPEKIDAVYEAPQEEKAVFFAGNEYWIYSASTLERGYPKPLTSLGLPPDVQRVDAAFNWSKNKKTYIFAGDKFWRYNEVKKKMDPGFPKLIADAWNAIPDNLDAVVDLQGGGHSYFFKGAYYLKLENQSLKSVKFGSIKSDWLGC

[3] = target: T2, 72 kDa type IV collagenase; assay: Inhibition of MMP-2 (unknown origin) at 20 uM by fluorometric assay
Target sequence in this assay (P08253 110-660 limits assumed): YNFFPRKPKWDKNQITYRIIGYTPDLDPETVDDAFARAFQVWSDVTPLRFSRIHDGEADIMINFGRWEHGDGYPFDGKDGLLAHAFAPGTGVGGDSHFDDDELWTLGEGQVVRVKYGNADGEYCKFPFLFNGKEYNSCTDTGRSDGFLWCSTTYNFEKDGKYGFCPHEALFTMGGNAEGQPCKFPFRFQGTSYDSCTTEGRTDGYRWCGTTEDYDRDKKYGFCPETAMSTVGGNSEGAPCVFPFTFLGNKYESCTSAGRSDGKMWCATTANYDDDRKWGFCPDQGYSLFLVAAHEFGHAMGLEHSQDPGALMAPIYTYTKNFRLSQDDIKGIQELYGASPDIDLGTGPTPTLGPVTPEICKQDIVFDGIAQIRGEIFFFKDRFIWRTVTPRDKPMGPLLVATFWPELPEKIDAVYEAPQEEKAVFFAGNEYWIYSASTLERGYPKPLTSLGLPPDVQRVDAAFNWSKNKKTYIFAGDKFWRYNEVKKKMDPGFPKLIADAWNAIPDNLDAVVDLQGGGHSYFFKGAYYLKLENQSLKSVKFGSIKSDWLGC

Stromelysin-1 [4] = target: T3, Stromelysin-1 (Homo sapiens, UniProt P08254); assay: Inhibition of MMP-3 (unknown origin) at 20 uM by fluorometric assay
Target sequence in this assay (P08254 100-477 limits assumed): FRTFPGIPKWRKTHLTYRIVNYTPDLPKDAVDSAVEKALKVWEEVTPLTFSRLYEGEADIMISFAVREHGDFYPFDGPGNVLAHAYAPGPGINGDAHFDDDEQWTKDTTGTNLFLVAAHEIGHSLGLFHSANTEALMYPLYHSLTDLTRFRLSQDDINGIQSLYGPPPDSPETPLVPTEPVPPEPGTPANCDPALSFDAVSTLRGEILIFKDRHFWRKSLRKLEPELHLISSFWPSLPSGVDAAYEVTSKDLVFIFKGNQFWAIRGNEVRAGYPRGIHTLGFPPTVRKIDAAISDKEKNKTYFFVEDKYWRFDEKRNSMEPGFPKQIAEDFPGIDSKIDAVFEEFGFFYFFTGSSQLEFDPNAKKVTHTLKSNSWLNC

[5] = target: T4, Matrilysin (Homo sapiens) (UniProt P09237); assay: Inhibition of MMP-7 (unknown origin) at 20 uM by fluorometric assay
T4 sequence (whole entry): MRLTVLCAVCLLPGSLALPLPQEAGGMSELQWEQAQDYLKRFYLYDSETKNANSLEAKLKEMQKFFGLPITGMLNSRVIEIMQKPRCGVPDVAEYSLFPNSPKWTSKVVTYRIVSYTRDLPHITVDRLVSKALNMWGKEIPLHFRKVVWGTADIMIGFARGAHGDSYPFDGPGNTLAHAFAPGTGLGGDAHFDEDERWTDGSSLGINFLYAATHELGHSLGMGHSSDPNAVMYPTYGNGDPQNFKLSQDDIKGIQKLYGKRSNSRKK

Neutrophil collagenase = Neutrophil collagenase (Homo sapiens, UniProt P22894); assay: Inhibition of MMP-8 (unknown origin) at 20 uM by fluorometric assay
Neutrophil collagenase, sequence (P22894 101-467 limits assumed): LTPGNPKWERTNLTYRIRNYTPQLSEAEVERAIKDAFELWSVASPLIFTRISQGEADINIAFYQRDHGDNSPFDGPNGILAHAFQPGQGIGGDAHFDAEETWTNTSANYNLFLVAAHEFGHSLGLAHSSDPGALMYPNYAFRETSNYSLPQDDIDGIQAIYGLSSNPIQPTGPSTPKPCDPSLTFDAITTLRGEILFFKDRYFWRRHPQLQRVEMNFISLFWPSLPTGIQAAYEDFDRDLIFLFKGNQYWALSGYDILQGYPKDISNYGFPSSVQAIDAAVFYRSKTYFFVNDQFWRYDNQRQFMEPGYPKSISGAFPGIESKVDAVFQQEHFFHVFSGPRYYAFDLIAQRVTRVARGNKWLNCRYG

[6] = target: T1, Matrix metalloproteinase-9; assay: Inhibition of MMP-9 (unknown origin) at 20 uM by fluorometric assay
[7] = target: Macrophage metalloelastase (Homo sapiens) (UniProt P39900); assay: Inhibition of MMP-12 (unknown origin) at 20 uM by fluorometric assay
Macrophage metalloelastase (Homo sapiens), sequence (P39900 106-470 limits assumed): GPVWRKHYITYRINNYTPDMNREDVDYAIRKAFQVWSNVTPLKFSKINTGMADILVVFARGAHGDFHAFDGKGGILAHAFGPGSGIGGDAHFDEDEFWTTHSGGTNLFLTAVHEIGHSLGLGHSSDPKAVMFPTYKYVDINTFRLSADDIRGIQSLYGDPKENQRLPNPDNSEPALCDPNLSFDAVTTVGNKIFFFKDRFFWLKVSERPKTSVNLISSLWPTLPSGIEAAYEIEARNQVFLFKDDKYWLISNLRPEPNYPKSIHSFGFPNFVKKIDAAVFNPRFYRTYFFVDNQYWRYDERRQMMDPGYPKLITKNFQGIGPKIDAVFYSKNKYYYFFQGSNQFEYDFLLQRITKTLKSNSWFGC

[8] = target: Matrix metalloproteinase-14 (Homo sapiens) (UniProt P50281); assay: Inhibition of MMP-14 (unknown origin) at 20 uM by fluorometric assay
[9] = target: T1, Matrix metalloproteinase-9; assay: Inhibition of human MMP9 using Dnp-Pro-Cha-Gly-Cys(Me)-His-Ala-Lys(Nma)-NH2 substrate by fluorimetric analysis
[10] = target: T2, 72 kDa type IV collagenase; assay: Inhibition of human MMP2 using Dnp-Pro-Cha-Gly-Cys(Me)-His-Ala-Lys(Nma)-NH2 substrate by fluorimetric analysis
Target sequence in this assay (P08253 whole entry): as the sequence (P08253 whole entry) above

Interstitial collagenase [11] = target: T5, Interstitial collagenase (Homo sapiens, UniProt P03956); assay: Inhibition of human MMP1 using Dnp-Pro-Cha-Gly-Cys(Me)-His-Ala-Lys(Nma)-NH2 substrate by fluorimetric analysis
T5 sequence (P03956 whole entry): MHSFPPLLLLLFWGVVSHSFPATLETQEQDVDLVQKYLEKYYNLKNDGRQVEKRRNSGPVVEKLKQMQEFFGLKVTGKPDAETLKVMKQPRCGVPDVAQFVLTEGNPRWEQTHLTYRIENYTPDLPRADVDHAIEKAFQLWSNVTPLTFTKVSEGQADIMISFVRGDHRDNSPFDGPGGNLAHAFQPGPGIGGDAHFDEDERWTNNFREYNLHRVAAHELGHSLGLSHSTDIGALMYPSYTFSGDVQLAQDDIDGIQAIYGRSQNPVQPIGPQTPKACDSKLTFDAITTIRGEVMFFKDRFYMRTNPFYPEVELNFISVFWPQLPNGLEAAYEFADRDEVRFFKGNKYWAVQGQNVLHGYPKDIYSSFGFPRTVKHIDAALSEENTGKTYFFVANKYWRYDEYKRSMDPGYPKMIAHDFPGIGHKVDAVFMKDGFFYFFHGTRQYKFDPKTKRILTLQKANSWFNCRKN

Stromelysin-1 [12] = target: T3, Stromelysin-1; assay: Inhibition of human MMP3 using (7-methoxycoumarine-4-yl)-Arg-Pro-Lys-Pro-Tyr-Ala-Nva-Trp-Met-Lys(Dnp)-NH2 substrate by fluorimetric analysis
Target sequence in this assay (P08254 whole entry): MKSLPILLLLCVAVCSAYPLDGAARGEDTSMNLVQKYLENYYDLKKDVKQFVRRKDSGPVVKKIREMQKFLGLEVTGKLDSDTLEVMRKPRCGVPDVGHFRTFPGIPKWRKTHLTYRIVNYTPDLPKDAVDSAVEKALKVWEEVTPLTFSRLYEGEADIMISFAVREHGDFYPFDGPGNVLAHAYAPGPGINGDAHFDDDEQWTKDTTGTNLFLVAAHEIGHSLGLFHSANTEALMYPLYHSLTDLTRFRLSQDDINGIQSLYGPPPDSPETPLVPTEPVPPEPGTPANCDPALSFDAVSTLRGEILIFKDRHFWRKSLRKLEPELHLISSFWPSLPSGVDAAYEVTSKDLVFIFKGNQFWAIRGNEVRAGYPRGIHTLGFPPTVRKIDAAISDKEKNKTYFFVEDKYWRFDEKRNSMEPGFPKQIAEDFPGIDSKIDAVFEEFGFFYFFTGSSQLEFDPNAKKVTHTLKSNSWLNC

Collagenase 3 [13] = target: T6, Collagenase 3 (Homo sapiens, UniProt P45452); assay: Inhibition of human MMP13 using Dnp-Pro-Cha-Gly-Cys(Me)-His-Ala-Lys(Nma)-NH2 substrate by fluorimetric analysis
[14] = target: T1, Matrix metalloproteinase-9; assay: Inhibition of MMP-9 (unknown origin)
[15] = target: T2, 72 kDa type IV collagenase
Target sequence in this assay (P08253 whole entry): as the sequence (P08253 whole entry) above

[16] = target: T2, 72 kDa type IV collagenase; assay: Inhibition of human MMP2 incubated for 1 hrs followed by chromogenic substrate addition and measured after 30 mins by microplate photometer analysis
Target sequence in this assay (P08253 whole entry): as above

[17] = target: T1, Matrix metalloproteinase-9; assay: Inhibition of human MMP9 incubated for 1 hrs followed by chromogenic substrate addition and measured after 30 mins by microplate photometer analysis
[18] = target: T1, Matrix metalloproteinase-9; assay: Inhibition of human MMP-9
[19] = target: T2, 72 kDa type IV collagenase; assay: Inhibition of human MMP-2
Target sequence in this assay (P08253 whole entry): as above

[20] = target: T1, Matrix metalloproteinase-9; assay: Inhibition of MMP-9 (unknown origin) assessed as inhibition constant using Mca-Pro-Leu-Gly-Dpa-Ala-Arg-NH2 substrate preincubated for 1 hr followed by substrate addition and measured after 1 hr by fluorimetric analysis
[21] = target: T2, 72 kDa type IV collagenase; assay: Inhibition of MMP-2 (unknown origin) assessed as inhibition constant using Mca-Pro-Leu-Gly-Dpa-Ala-Arg-NH2 substrate preincubated for 1 hr followed by substrate addition and measured after 1 hr by fluorimetric analysis
Target sequence in this assay (P08253 whole entry): as above

Interstitial collagenase [22] = target: T5, Interstitial collagenase; assay: Inhibition of MMP-1 (unknown origin)
Collagenase 3 [23] = target: T6, Collagenase 3
Description: Inhibition of MMP-13 (unknown origin)

[24] = target: Disintegrin and metalloproteinase domain-containing protein 17 (Homo sapiens, UniProt P78536); assay: Inhibition of TACE (unknown origin)
Disintegrin and metalloproteinase domain-containing protein 17, sequence (P78536 whole entry, the tested form may be a part): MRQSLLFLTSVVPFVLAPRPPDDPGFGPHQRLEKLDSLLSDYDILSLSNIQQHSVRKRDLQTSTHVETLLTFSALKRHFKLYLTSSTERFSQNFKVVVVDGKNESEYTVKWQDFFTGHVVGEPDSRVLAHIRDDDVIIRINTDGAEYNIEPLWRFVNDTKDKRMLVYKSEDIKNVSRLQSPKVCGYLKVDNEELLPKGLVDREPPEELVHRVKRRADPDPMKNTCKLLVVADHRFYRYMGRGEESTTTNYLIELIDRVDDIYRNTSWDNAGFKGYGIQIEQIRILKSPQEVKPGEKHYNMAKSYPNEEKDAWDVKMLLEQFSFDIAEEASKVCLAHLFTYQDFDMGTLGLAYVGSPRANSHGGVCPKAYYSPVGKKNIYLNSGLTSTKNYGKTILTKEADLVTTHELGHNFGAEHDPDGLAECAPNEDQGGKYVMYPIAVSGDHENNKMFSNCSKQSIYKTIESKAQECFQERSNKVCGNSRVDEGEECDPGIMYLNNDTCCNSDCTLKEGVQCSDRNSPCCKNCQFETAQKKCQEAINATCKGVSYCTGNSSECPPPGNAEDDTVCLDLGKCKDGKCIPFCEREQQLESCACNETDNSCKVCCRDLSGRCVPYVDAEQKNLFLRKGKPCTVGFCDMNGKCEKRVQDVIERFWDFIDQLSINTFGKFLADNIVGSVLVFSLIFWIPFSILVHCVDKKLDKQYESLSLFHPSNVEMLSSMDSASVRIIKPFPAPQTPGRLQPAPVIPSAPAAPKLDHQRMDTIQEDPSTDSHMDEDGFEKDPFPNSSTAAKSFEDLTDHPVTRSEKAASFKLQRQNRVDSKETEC

[25] = target: T1, Matrix metalloproteinase-9; assay: Inhibition of MMP-9 (unknown origin) using Ac-Pro-Leu-Gly-SCH(CH2 CH(CH3)2)CO-Leu-Gly-OCH2CH3 as substrate preincubated of 0.5 hrs followed by substrate addition and measured after 3 hrs by fluorescence analysis
[26] = Cmax in mouse plasma at 200 mg/kg, po by HPLC analysis; assay type: ADME, organism-based; design: dose 200 mg/kg, route po

T1 sequence (P14780 whole entry): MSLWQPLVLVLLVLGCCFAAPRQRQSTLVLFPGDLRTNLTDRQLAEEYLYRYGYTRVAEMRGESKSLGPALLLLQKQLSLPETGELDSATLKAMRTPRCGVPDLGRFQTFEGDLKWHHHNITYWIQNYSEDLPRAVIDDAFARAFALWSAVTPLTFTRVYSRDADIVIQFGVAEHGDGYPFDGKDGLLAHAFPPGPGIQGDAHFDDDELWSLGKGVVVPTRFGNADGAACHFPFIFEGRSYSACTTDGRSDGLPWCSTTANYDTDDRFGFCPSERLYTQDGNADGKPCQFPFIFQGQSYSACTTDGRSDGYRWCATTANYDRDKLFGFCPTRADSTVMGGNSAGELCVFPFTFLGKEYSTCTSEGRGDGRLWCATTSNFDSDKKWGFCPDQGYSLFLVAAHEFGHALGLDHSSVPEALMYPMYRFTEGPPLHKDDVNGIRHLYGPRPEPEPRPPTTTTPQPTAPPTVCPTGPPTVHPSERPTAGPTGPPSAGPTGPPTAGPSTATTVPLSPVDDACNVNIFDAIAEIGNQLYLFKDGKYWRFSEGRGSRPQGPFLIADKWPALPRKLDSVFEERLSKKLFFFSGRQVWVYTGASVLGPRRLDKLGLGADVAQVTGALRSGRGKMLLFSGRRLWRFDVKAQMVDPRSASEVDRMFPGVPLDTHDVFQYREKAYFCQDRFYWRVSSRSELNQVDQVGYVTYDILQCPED

`O=CN(O)C(CS(=O)(=O)c1ccc(Oc2ccc(OC(F)(F)F)cc2)cc1)[C@@H](O)CO` (stereo not given in full) gave an IC50 [1] of 0.092 nM and an IC50 [2] of 0.36 nM.
`FC(F)(F)c1ccc(N2CC2Cn2cc(CCCCCCc3cn(CC4CN4c4ccc(C(F)(F)F)cc4)nn3)nn2)cc1` (stereo not given) showed an inhibition [3] of 80.5%, an inhibition (Stromelysin-1 [4]) of 27.1% and an inhibition [5] of 27.5%. It also gave an inhibition (Neutrophil collagenase) of 34.9%, an inhibition [6] of 29.6% and an inhibition [7] of 26%. It also gave an inhibition [8] of 22.3%.
`COc1ccc(S(=O)(=O)N2CC(C)(C)C(CCSCc3ccccc3)C2C(=O)NO)cc1` (stereo not given) gave an IC50 [9] of 0.9 nM, an IC50 [10] of 1.64 nM and an IC50 (Interstitial collagenase [11]) of 198 nM. It also gave an IC50 (Stromelysin-1 [12]) of 6.7 nM and an IC50 (Collagenase 3 [13]) of 5.5 nM.
Work on `CN(C)c1ccc(-c2cn(-c3ccc(S(=O)(=O)NC(Cc4ccccc4)C(=O)NO)cc3)nn2)cc1` (stereo not given) yielded an IC50 [14] of 1.06 nM and an IC50 [15] of 0.32 nM.
Work on `O=C(O)CC[C@@H](NC(=O)Cc1ccc(Br)cc1)C(=O)NCc1ccc([N+](=O)[O-])cc1` yielded an IC50 [16] of 6400 nM and an IC50 [17] of 4830 nM.
With `CCCN(C(CSC)C(=O)NO)S(=O)(=O)c1ccc(OC)cc1` (stereo not given) the IC50 [18] was 0.2 nM and the IC50 [19] was 0.7 nM.
Work on `CCCCCCCCCC[C@@H](CC(=O)NO)C(=O)N[C@H](C(=O)NC)c1ccccc1` yielded an IC50 [20] of 0.2 nM and an IC50 [21] of 1.6 nM.
With `COc1ccc(S(=O)(=O)N(C)c2c(C)cc(Cc3ccc(CN(C)C)cc3)cc2C(=O)NO)cc1` the IC50 [14] was 3 nM, the IC50 (Interstitial collagenase [22]) was 213 nM and the IC50 (Collagenase 3 [23]) was 11 nM. It also gave an IC50 [24] of 243 nM.
In the case of `Cc1ccc(C#Cc2ccc(S(=O)(=O)N[C@H](C(=O)O)C(C)C)s2)cc1`, the IC50 [25] is reported as 14 nM and the Cmax [26] is reported as 284 µM.
`COc1ccc(S(=O)(=O)N(Cc2ccccn2)c2c(C)cc(-c3cccc(C(F)(F)F)c3)cc2C(=O)NO)cc1` showed an IC50 [14] of 1 nM and an IC50 (Collagenase 3 [23]) of 2 nM.
